From paper PMC4929945, “Structural and functional analysis of the solute-binding protein UspC from Mycobacterium tuberculosis that is specific for amino sugars” (Open Biology, 2016)

What was measured:
[1] = molecular target: T1, UspC (Mtb-UspC, Rv2318), solute-binding protein of the UspABC transporter (Mycobacterium tuberculosis, UniProt P71894); assay: STD-NMR ([…] ligand, […] protein) and thermal shift
T1 construct: UspCNt, N-terminally truncated, residues 31–441, His6-tagged

[2] = molecular target: T1, UspC (Mtb-UspC, Rv2318), solute-binding protein of the UspABC transporter; assay: thermal shift saturation binding (Kd,app), Tm shift […]°C at […]

T1 sequence (P71894 entry or part of it): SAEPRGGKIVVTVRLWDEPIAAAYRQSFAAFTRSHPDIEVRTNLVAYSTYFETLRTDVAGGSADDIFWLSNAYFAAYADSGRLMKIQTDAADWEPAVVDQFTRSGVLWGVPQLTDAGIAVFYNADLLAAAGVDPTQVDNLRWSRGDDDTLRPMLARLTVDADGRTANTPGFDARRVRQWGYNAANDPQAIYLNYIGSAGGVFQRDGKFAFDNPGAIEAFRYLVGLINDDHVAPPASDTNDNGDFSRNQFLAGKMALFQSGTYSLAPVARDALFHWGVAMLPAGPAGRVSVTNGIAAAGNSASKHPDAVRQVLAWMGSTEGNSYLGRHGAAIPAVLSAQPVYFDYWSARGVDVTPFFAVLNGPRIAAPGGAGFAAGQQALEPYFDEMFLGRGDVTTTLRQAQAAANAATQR

| SMILES | STD-NMR (50 mM ligand, 30 μM protein) and thermal shift [1] | Kd [2] |
| --- | --- | --- |
| N[C@H]1C(O)O[C@H](CO)[C@@H](O)[C@@H]1O (stereo partly drawn) [D-glucosamine] | H2 (α and β) and H4 (α and β) of D-glucosamine interact non-covalently with Mtb-UspCNt | – |
| N[C@H]1C(O)O[C@H](COP(=O)(O)O)[C@@H](O)[C@@H]1O (stereo partly drawn) [D-glucosamine-6-phosphate] | – | 27.7 ± 6.4 mM |
